Data as given in patent publication US20210186972A1, “FORMULATIONS AND METHODS FOR THE PREVENTION AND TREATMENT OF TUMOR METASTASIS AND TUMORIGENESIS” (THE UNITED STATES OF AMERICA, AS REPRESENTED BY THE …, priority 2018, published 2021).

Legend:
[1] = tested on: Pol II transcription; assay: Pol II transcription status: CUGBP and SC35 immunolabeling; type: cell-based
Description: To further determine whether metarrestin interferes with Pol II transcription in general, CUGBP was immunolabeled. The steady state nuclear distribution of CUGBP, a multifunctional hnRNP protein highly enriched in the PNC, is dependent upon Pol II transcription.

[2] = Anchorage-independent growth, soft agar assay of screening hits; type: cell-based; conditions: screening hit
Description: (§1) A metastatic prostate cancer cell line, PC3M, was developed in order to screen small molecules that effectively disassemble PNCs (see Pettaway, et al., “Selection of highly metastatic variants of different human prostatic carcinomas using orthotopic implantation in nude mice,” Clin. Cancer Res., (2): 1627-36 (1996), incorporated herein in its entirety). PC3M has a […] stably express GFP-PTB (polypyrimidine track binding protein) (FIG. 1, top panels), an essential component of PNCs (see Huang, et al., “The perinucleolar compartment and transcription,” Journal of Cell Biology, (143): 35-47 (1998), incorporated herein in its entirety). Compounds able to reduce PNC prevalence by 50% were filtered in secondary assays to eliminate those that induced apoptosis, DNA damage, generic cytotoxicity, or cell-cycle blockage (see Norton, et al., “Automated high-content screening for compounds that disassemble the perinucleolar compartment,” J Biomol Screen, (14): 1045-53 (2009) and Frankowski, et al., “Discovery and Development of Small Molecules That Reduce PNC Prevalence, in Probe Reports from the NIH Molecular Libraries Program, Bethesda (Md.).(2010), incorporated herein in their entirety). The remaining hits were evaluated for invasion inhibition through MATRIGEL gelatinous protein mixture and anchorage-independent growth inhibition using soft agar assays.

[3] = Invasion through MATRIGEL, screening hits; type: cell-based; conditions: screening hit
Description: as §1

[4] = Cytotoxicity secondary assay of screening hits; type: cell-based; conditions: screening hit
Description: as §1

[5] = tested on: PC3M-GFP-PTB cells; assay: PNC prevalence / PNC disassembly in PC3M-GFP-PTB cells; type: cell-based, human; conditions: screening hit
Description: FIG. 1 is a graph showing the concentration-response curve against PNC prevalence in PC3M (a metastatic prostate cancer cell line)-GFP (green fluorescent protein)-PTB (polypyrimidine tract-binding protein) cells (squares, PC3M, has a PNC prevalence of 75-85% in the absence of treatment) and cytotoxicity as measured by cellular ATP (CELLTITER GLO™) (circles). Representative PTB-GFP images for cells at the indicated concentrations (arrowheads indicate PNCs) (scale bar=5 μm) are shown in the three panels above the graph. The relative signal (%) is along the y-axis and Metarrestin [log M] is along the x-axis.
as §1

[6] = tested on: PC3M cells; assay: PNC disassembly by biotin-metarrestin in cultured cells; type: cell-based, human; conditions: 1 μM, 24 hours (FIG. 60)
Procedure: FIG. 60 is a set of panels showing the effectiveness of biotin-metarrestin in disassembling PNCs. The effects of metarrestin and biotin-metarrestin were compared in PC3M cells treated at 1 μM or untreated for 24 hours. Arrows indicate PNCs. Scale bar=5 μm.

In the case of CC[C@H](C)[C@@H]1NC(=O)CNC(=O)[C@@H]2Cc3c([nH]c4cc(O)ccc34)[S+]([O-])C[C@@H](NC(=O)CNC1=O)C(=O)N[C@@H](CC(N)=O)C(=O)N1C[C@H](O)C[C@H]1C(=O)N[C@@H]([C@@H](C)[C@@H](O)CO)C(=O)N2 (stereo in doubt) [α-amanitin, reference compound], the “Localization of CUGBP” value [1] is reported as “induces a localization shift to the cytoplasm” and the SC35 distribution pattern [1] is reported as “changed to isolated large dots”.
With N=c1c2c(-c3ccccc3)c(-c3ccccc3)n(Cc3ccccc3)c2ncn1CCCO [MLS000556915] the Soft agar growth [2] was “soft agar growth inhibitor”, the Invasion [3] was “ability to block invasion” and the Cytotoxicity [4] was “lack of cytotoxicity”. For the same compound, the PNC inhibition [5] was “potency as a PNC inhibitor”.
In the case of N=c1c2c(-c3ccccc3)c(-c3ccccc3)n(Cc3cccc(C#CCCCCNC(=O)CCCC[C@@H]4SC[C@@H]5NC(=O)N[C@@H]54)c3)c2ncn1[C@H]1CC[C@H](O)CC1 [biotin-conjugated metarrestin, N-(6-(3-((3-(trans-4-hydroxycyclohexyl)-4-imino-5,6-diphenyl-3,4-dihydro-7H-pyrrolo[2,3-d]pyrimidin-7-yl)methyl)phenyl)hex-5-yn-1-yl)-5-((3aS,4S,6aR)-2-oxohexahydro-1H-thieno[3,4-d]imidazol-4-yl)pentanamide], the “PNC disassembly in cultured cells” value [6] is reported as “maintains its efficacy for PNC disassembly”.
